From patent US20240417393A1, “CERTAIN 2,5-DIAZABICYCLO[4.2.0]OCTANES AS GLP-1 RECEPTOR MODULATORS” (ASTRAZENECA AB, priority 2021, published 2024) come the findings set out here.

Experiment [1] addresses T1, human phosphodiesterase-3A (Homo sapiens, UniProt Q14432).
T1 construct: host or cells: Sf9 (Spodoptera frugiperda) cells
Kind of experiment: PDE3 Assay ([3H]cAMP to 5'AMP, SPA). Format: biochemical. Particulars: human recombinant PDE3A expressed in Sf9 cells; 450 nM cAMP; 20 min at 22° C. Here is the method:
Evaluation of the effects of compounds on the activity of the human phosphodiesterase-3A is quantified by measuring the formation of 5′AMP from cAMP using a human recombinant is enzyme expressed in a clonal isolate of Spodoptera frugiperda cells (Sf9) cells.
The test compound, reference compound or water (control) are added to a buffer containing 40 mM tris(hydroxymethyl)aminomethane (Tris)/HCl (pH 7.4) and 8 mM MgCl2, 450 nMcAMP and 0.25 μCi [^3H]cAMP.
Thereafter, the reaction is initiated by addition of the enzyme (about 1U) and the mixture is incubated for 20 min at 22° C.
For basal control measurements, the enzyme is omitted from the reaction mixture.
Following incubation SPA beads are added. After 30 min at 22° C. under shaking, the amount of [^3H]5′AMP is quantified with a scintillation counter (Topcount, Packard).
The results are expressed as a percent inhibition of the control enzyme activity. The standard inhibitory reference compound is milrinone (CAS number 78415-72-2), which is tested in each experiment at several concentrations to obtain an inhibition curve from which its IC50 value is calculated.

Experiment [2] has as its target T2, human GLP-1R receptor (Homo sapiens, UniProt P43220, L260F).
T2 construct: expressed in transfected cells; host or cells: CHO-K1 (ATCC CCL-61)
Kind of experiment: CHOK1 GLP-1R cAMP Assay (HTRF). The experiment is classed as cell-based. Conditions: CHO-K1 cells stably expressing human GLP-1R (Leu260Phe variant), 20 min at rt.

Experiment [3] deals with T3, GLP-1R in a pancreatic insulinoma cell line (EndoC-PH1) (Homo sapiens, UniProt P43220).
T3 construct: host or cells: EndoC-βH1 human pancreatic beta cell line
The experiment is described as follows: EndoC cAMP Accumulation Assay (HTRF). Format: cell-based. Particulars: EndoC-PH1 human pancreatic beta cell line, endogenous GLP-1R, 30 min at rt. In outline:
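Thawed human EndoC-βH1 cells, about 3000 per well, stimulated with compound 30 min at room temperature in HBSS/HEPES pH 7.4 with 0.1% BSA and 0.5 mM IBMX; cAMP by competitive HTRF. Responses as % activation relative to maximal GIP (82.5 nM), 4-parameter logistic fit.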
In general terms: In TR-FRET formats the signal depends on donor and acceptor labels being close together.

T3 sequence (P43220 24-463): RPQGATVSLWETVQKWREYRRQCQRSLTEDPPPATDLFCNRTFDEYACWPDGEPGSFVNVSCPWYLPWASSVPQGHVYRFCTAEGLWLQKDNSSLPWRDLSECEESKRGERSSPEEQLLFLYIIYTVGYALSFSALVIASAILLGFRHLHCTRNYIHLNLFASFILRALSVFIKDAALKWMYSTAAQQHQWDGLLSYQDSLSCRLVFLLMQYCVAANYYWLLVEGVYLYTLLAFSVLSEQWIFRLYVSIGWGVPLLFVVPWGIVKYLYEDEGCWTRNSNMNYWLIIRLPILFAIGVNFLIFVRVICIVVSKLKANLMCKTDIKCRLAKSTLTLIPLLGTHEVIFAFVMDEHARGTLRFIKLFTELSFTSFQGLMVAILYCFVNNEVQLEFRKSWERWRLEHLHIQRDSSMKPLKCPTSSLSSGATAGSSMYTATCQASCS
T2 sequence (P43220 24-463 L260F): as the sequence (P43220 24-463) above, with L237F counted along it
T1 sequence (Q14432 whole entry): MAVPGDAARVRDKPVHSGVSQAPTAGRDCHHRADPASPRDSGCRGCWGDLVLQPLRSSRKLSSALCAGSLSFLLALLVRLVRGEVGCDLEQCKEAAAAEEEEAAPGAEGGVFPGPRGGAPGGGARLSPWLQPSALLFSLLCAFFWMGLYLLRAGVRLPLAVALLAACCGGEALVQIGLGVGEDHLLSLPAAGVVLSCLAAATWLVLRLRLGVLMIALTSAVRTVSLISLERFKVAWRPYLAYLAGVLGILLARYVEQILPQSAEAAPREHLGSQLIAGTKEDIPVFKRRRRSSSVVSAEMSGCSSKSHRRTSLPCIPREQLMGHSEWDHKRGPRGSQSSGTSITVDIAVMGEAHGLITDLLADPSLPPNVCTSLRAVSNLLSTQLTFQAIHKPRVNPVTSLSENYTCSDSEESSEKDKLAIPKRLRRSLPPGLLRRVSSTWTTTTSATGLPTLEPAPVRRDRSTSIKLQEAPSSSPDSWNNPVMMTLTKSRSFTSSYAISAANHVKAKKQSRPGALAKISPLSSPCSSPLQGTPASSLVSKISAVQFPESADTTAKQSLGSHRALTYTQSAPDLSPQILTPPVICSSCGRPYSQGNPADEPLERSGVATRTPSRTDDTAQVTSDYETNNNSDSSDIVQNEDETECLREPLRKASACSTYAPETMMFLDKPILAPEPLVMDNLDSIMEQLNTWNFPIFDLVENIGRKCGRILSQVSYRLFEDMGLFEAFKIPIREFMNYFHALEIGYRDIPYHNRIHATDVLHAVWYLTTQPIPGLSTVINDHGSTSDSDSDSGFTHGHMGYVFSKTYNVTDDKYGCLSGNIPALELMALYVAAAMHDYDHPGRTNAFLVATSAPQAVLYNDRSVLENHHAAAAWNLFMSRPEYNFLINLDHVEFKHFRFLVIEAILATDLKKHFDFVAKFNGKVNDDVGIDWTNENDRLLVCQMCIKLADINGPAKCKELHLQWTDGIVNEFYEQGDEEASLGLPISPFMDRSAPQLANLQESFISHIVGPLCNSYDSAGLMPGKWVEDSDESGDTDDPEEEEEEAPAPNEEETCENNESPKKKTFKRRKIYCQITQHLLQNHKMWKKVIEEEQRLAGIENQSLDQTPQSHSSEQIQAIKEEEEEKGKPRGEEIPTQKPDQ

As a reminder, the IC50 is the point on the concentration scale where inhibition reaches its midpoint. As a reminder, the EC50 is the concentration giving half of the maximal effect. Low readings indicate a more potent agent, high ones a less potent agent. Regarding `C[C@]1(c2ccc(Cl)cn2)Oc2cccc(N3CCN(Cc4nc5c(Cl)cc(C(=O)O)cc5n4C[C@@H]4CCO4)[C@@H]4CC[C@H]43)c2O1` (single isomer, unassigned) [Example 3b], the IC50 in experiment [1] was over 100000 nM. Besides, the 50% effective concentration (EC50) was 0.9 nM in experiment [2] and 2.6 nM in experiment [3].

Consider `C[C@]1(c2ccc(Cl)cn2)Oc2cccc(N3CCN(Cc4nc5ccc(C(=O)O)cc5n4C[C@@H]4CCO4)[C@H]4CC[C@H]43)c2O1` (single isomer, unassigned) [Example 5a, 2-((1R*,6S*)-5-(R*)-2-(5-Chloropyridin-2-yl)-2-methylbenzo[d][1,3]dioxol-4-yl)-2,5-diazabicyclo[4.2.0]octan-2-yl)methyl)-1-(((S)-oxetan-2-yl)methyl)-1H-benzo[d]imidazole-6-carboxylic acid], for which the IC50 in experiment [1] was over 100000 nM. The figures for the EC50 in experiment [2] and in experiment [3] were 1.9 nM and 6.5 nM, respectively.

In the case of `CCn1ccnc1Cn1c(CN2CCN(c3cccc4c3O[C@@](C)(c3ccc(Cl)cn3)O4)[C@H]3CC[C@@H]32)nc2c(Cl)cc(C(=O)O)cc21` (single isomer, unassigned) [Example 10a], in experiment [1], the IC50 is over 100000 nM. Also, the EC50 in experiment [2] is 0.9 nM; in experiment [3], 3.5 nM.

With `COc1cc(C(=O)O)cc2c1nc(CN1CCN(c3cccc4c3O[C@@](C)(c3ccc(Cl)cn3)O4)[C@@H]3CC[C@@H]31)n2C[C@@H]1CCO1` (single isomer, unassigned) [Example 2d, 2-((1R*,6S*)-5-(R*)-2-(5-Chloropyridin-2-yl)-2-methylbenzo[d][1,3]dioxol-4-yl)-2,5-diazabicyclo[4.2.0]octan-2-yl)methyl)-4-methoxy-1-(((S)-oxetan-2-yl)methyl)-1H-benzo[d]imidazole-6-carboxylic acid], in experiment [1], the IC50 was over 100000 nM.

As to `COc1cc(C(=O)O)cc2c1nc(CN1CCN(c3cccc4c3O[C@@](C)(c3ccc(Cl)cn3)O4)[C@H]3CC[C@@H]31)n2C[C@@H]1CCCO1` (single isomer, unassigned) [Example 7b, 2-(((1R*,6R*)-5-((R*)-2-(5-Chloropyridin-2-yl)-2-methylbenzo[d][1,3]dioxol-4-yl)-2,5-diazabicyclo[4.2.0]octan-2-yl)methyl)-4-methoxy-1-(((S)-tetrahydrofuran-2-yl)methyl)-1H-benzo[d]imidazole-6-carboxylic acid], the 50% inhibitory concentration (IC50) in experiment [1] was over 100000 nM. Also, the EC50 was determined as 2.5 nM in experiment [2] and 6.1 nM in experiment [3].

As for `COc1cc(C(=O)O)cc2c1nc(CN1CCN(c3cccc4c3O[C@@](C)(c3ccc(Cl)cn3)O4)[C@@H]3CC[C@@H]31)n2C[C@@H]1CCCO1` (single isomer, unassigned) [Example 8c], the IC50 in experiment [1] is over 100000 nM. Further, the EC50 was found to be 1.6 nM in experiment [2] and 2.6 nM in experiment [3].

In the case of `COc1cc(C(=O)O)cc2c1nc(CN1CCN(c3cccc4c3O[C@@](C)(c3ccc(Cl)cn3)O4)[C@H]3CC[C@@H]31)n2C[C@@H]1CCO1` (single isomer, unassigned) [Example 6a, 2-(((1R*,6R*)-5-((R*)-2-(5-Chloropyridin-2-yl)-2-methylbenzo[d][1,3]dioxol-4-yl)-2,5-diazabicyclo[4.2.0]octan-2-yl)methyl)-4-methoxy-1-(((S)-oxetan-2-yl)methyl)-1H-benzo[d]imidazole-6-carboxylic acid], the IC50 in experiment [1] is over 100000 nM.

Turning to `C[C@]1(c2ccc(Cl)cn2)Oc2cccc(N3CCN(Cc4nc5c(Cl)cc(C(=O)O)cc5n4C[C@@H]4CCO4)[C@H]4CC[C@@H]43)c2O1` (single isomer, unassigned) [Example 3c, 4-Chloro-2-(((1R*,6R*)-5-((R*)-2-(5-chloropyridin-2-yl)-2-methylbenzo[d][1,3]dioxol-4-yl)-2,5-diazabicyclo[4.2.0]octan-2-yl)methyl)-1-(((S)-oxetan-2-yl)methyl)-1H-benzo[d]imidazole-6-carboxylic acid], the IC50 in experiment [1] is over 100000 nM. The EC50 in experiment [2] came to 11 nM; in experiment [3], 8.8 nM.

`COc1cc(C(=O)O)cc2c1nc(CN1CCN(c3cccc4c3O[C@@](C)(c3ccc(Cl)cn3)O4)[C@H]3CC[C@@H]31)n2C[C@@H]1CCCO1` (single isomer, unassigned) [Example 7a, 2-(((1R*,6R*)-5-((R*)-2-(5-Chloropyridin-2-yl)-2-methylbenzo[d][1,3]dioxol-4-yl)-2,5-diazabicyclo[4.2.0]octan-2-yl)methyl)-4-methoxy-1-(((S)-tetrahydrofuran-2-yl)methyl)-1H-benzo[d]imidazole-6-carboxylic acid]: the figures for the EC50 in experiment [2] and in experiment [3] were 27 nM and 72 nM, respectively.

In the case of `C[C@]1(c2ccc(Cl)cn2)Oc2cccc(N3CCN(Cc4nc5c(F)cc(C(=O)O)cc5n4C[C@@H]4CCO4)[C@H]4CC[C@H]43)c2O1` (single isomer, unassigned) [Example 1a, 2-((1R*,6S*)-5-(R*)-2-(5-Chloropyridin-2-yl)-2-methylbenzo[d][1,3]dioxol-4-yl)-2,5-diazabicyclo[4.2.0]octan-2-yl)methyl)-4-fluoro-1-(((S)-oxetan-2-yl)methyl)-1H-benzo[d]imidazole-6-carboxylic acid], the values for the 50% effective concentration (EC50) in experiment [2] and in experiment [3] were 66 nM and 280 nM, respectively.

As for `C[C@]1(c2ccc(Cl)cn2)Oc2cccc(N3CCN(Cc4nc5ccc(C(=O)O)cc5n4C[C@@H]4CCO4)[C@H]4CC[C@H]43)c2O1` (single isomer, unassigned) [Example 5c], the EC50 in experiment [2] stood at 180 nM; in experiment [3], 1800 nM.

Regarding `C[C@]1(c2ccc(Cl)cn2)Oc2cccc(N3CCN(Cc4nc5c(Cl)cc(C(=O)O)cc5n4C[C@@H]4CCO4)[C@H]4CC[C@H]43)c2O1` (single isomer, unassigned) [Example 20c, 4-Chloro-2-(((1R*,6S*)-5-((R*)-2-(5-chloropyridin-2-yl)-2-methylbenzo[d][1,3]dioxol-4-yl)-2,5-diazabicyclo[4.2.0]octan-2-yl)methyl)-1-(((S)-oxetan-2-yl)methyl)-1H-benzo[d]imidazole-6-carboxylic acid], the EC50 in experiment [2] is 0.81 nM; in experiment [3], 2.2 nM.

For `CCn1ccnc1Cn1c(CN2CCN(c3cccc4c3O[C@@](C)(c3ccc(Cl)cn3)O4)[C@H]3CC[C@@H]32)nc2c(Cl)cc(C(=O)O)cc21` (single isomer, unassigned) [Example 10c], the EC50 in experiment [2] is 240 nM; in experiment [3], 1000 nM.

For the compound `C[C@]1(c2ccc(Cl)cc2F)Oc2cccc(N3CCN(Cc4nc5c(F)cc(C(=O)O)cc5n4C[C@@H]4CCO4)[C@H]4CC[C@H]43)c2O1` (single isomer, unassigned) [Example 9c, 2-(((1R*,6S*)-5-((R*)-2-(4-Chloro-2-fluorophenyl)-2-methylbenzo[d][1,3]dioxol-4-yl)-2,5-diazabicyclo[4.2.0]octan-2-yl)methyl)-4-fluoro-1-(((S)-oxetan-2-yl)methyl)-1H-benzo[d]imidazole-6-carboxylic acid], the EC50 worked out at 28 nM in experiment [2] and 74 nM in experiment [3].

For the compound `COc1cc(C(=O)O)cc2c1nc(CN1CCN(c3cccc4c3O[C@@](C)(c3ccc(Cl)cn3)O4)[C@@H]3CC[C@@H]31)n2C[C@@H]1CCO1` (single isomer, unassigned) [Example 2a, 2-((1R*,6S*)-5-(R*)-2-(5-Chloropyridin-2-yl)-2-methylbenzo[d][1,3]dioxol-4-yl)-2,5-diazabicyclo[4.2.0]octan-2-yl)methyl)-4-methoxy-1-(((S)-oxetan-2-yl)methyl)-1H-benzo[d]imidazole-6-carboxylic acid], in experiment [1], the IC50 is over 100000 nM.

Turning to `C[C@]1(c2ccc(Cl)cn2)Oc2cccc(N3CCN(Cc4nc5c(F)cc(C(=O)O)cc5n4CC4(CC#N)CC4)[C@H]4CC[C@@H]43)c2O1` (single isomer, unassigned) [Example 23b], the EC50 in experiment [2] amounted to 27 nM; in experiment [3], 85 nM.

As for `COc1cc(C(=O)O)cc2c1nc(CN1CCN(c3cccc4c3O[C@@](C)(c3ccc(Cl)cn3)O4)[C@H]3CC[C@@H]31)n2C[C@@H]1CCCO1` (single isomer, unassigned) [Example 7c, 2-(((1R*,6R*)-5-((R*)-2-(5-Chloropyridin-2-yl)-2-methylbenzo[d][1,3]dioxol-4-yl)-2,5-diazabicyclo[4.2.0]octan-2-yl)methyl)-4-methoxy-1-(((S)-tetrahydrofuran-2-yl)methyl)-1H-benzo[d]imidazole-6-carboxylic acid], the EC50 was 110 nM in experiment [2] and 32 nM in experiment [3].

As to `C[C@]1(c2ccc(Cl)cn2)Oc2cccc(N3CCN(Cc4nc5c(F)cc(C(=O)O)cc5n4CC4(CC#N)CC4)[C@H]4CC[C@@H]43)c2O1` (single isomer, unassigned) [Example 23c], the 50% effective concentration (EC50) was 140 nM in experiment [2] and 360 nM in experiment [3].
